Results reported in patent US20180311236A1 (AB SCIENCE, priority 2015, published 2018).

What was measured:
[1] = tested on: C57BL/6 mice; assay: Mortality after MPTP intoxication; assay type: in vivo, mouse; settings: 24 hours after treatment by the MPTP (4 injections of 20 mg/kg at 2-hour intervals)
Source text: Brain samples were collected after mice anesthesia and sacrifice.

[2] = tested on: Tyrosine Hydroxylase in total brain protein extract; assay: MPTP mouse model of Parkinson's disease: tyrosine hydroxylase western blotting; settings: MPTP alone (4 × 20 mg/kg, solvent-treated), control = 100
Procedure: Each treated group included 10 animals for the MPTP intoxicated groups and 5 animals for the controls.
(§1) C57BL/6J mice are intoxicated with MPTP using an acute protocol, as described hereafter. On the day of MPTP exposure each mouse received 4 injections of MPTP solution (20 mg/kg) at 2-hour intervals for 1 day.
Before brain extraction mice were perfused with 0.9% NaCl 2.6 mM EDTA solution.
And the right brain was immediately frozen in nitrogen liquid for protein analysis. The proteins were extracted with the homogenizer ultra turrax IKA-T10 basic system and quantified using the BCA test (bicinchoninic acid assay).
30 μg of total brain protein were used for western blot analysis using 1:1000 dilution anti-tyrosine hydroxylase rabbit polyclonal antibody (Cat #AB152, Millipore) followed by 1:10000 horseradish peroxidase-conjugated anti-rabbit antibody (Jakson ImmunoResearch). Antibody to actin (Cat #A5316, Sigma Aldrich) were used as loading control followed by 1:10000 horseradish peroxidase-conjugated anti-mouse antibody (Jakson ImmunoResearch). Immunoreactive bands were detected using enhanced chemiluminescent reagents (GE Healthcare, Amersham, UK). Signal intensity was calculated using the Image J software.

[3] = tested on: tyrosine hydroxylase in coronal brain sections; assay: MPTP mouse model of Parkinson's disease: tyrosine hydroxylase immunohistochemistry; assay type: in vivo; settings: immunohistochemistry on 5 μm-thick coronal sections; MPTP + masitinib 2 × 5 mg/kg
[4] = tested on: Ba/F3 cells expressing PDGFR-α; settings: read-out: IC50, PDGF-BB-stimulated proliferation and PDGFR-α tyrosine phosphorylation; cited from earlier work
[5] = tested on: human cord blood mast cells; settings: cited from earlier work
[6] = tested on: Monoamine oxidase activity from total brain protein extract; assay: MPTP mouse model: monoamine oxidase fluorometric assay; settings: MPTP + masitinib 2 × 5 mg/kg, control = 100, MPTP = 108
Procedure: (§2) Each treated group included 10 animals for the MPTP intoxicated groups and 5 animals for the controls. The loss of tyrosine hydroxylase expression, indicative of dopaminergic neuron destruction, was analyzed by western blotting, immunohistochemistry and ELISA assay.
This stock solution was defrosted before treatment of mice. The mice were treated orally by gavage with 0.1 ml corresponding to 25 mg/kg in a 24 g mouse.
as §1
(§3) Dosing was done 2 times per day at 6-hour interval starting day 7 before intoxication and stopping 7 days after MPTP administration. […] Before brain extraction mice were perfused with 0.9% NaCl 2.6 mM EDTA solution.
(§4) The treatment started 7 days before MPTP administration and continued 7 days after.
(§5) After mouse sacrifice and dissection, the left brain was submerged in 4% paraformaldehyde in PBS (phosphate buffered saline) solution for paraffin embedding and then cut into 5 μM-thick coronal section. And the right brain was immediately frozen in nitrogen liquid for protein analysis. The proteins were extracted with the homogenizer ultra turrax IKA-T10 basic system and quantified using the BCA test (bicinchoninic acid assay).

[7] = tested on: Tyrosine Hydroxylase in total brain protein extract; assay: MPTP mouse model of Parkinson's disease: tyrosine hydroxylase ELISA assay
Procedure: as §2
The mice were treated orally by gavage with 0.1 ml corresponding to 25 mg/kg in a 24 g mouse.
as §1, §3, §4, §5
The microliter plate wells were coated overnight at 4° C. with 5μg of total brain protein extract. […]

| Monoamine oxidase fluorometric assay [6] | Mean expression of tyrosine hydroxylase ([7]; masitinib alone 2 × 30 mg/kg per os, no MPTP, control = 0.275, 30 mg/kg) | Compound | mortality [1] | Relative average expression of tyrosine hydroxylase [2] | in situ staining of tyrosine hydroxylase [3] | IC50 [4] [nM] | FcϵRI-mediated degranulation [5] | Mean expression of tyrosine hydroxylase ([7]; MPTP + masitinib 2 × 5 mg/kg per os, day -7 to day 7, control = 0.275, MPTP = 0.175, 5 mg/kg) |
| --- | --- | --- | --- | --- | --- | --- | --- | --- |
| – | – | CN1CC=C(c2ccccc2)CC1 [MPTP, 1-methyl-4-phenyl-1,2,3,6-tetrahydropyridine] | No mortality | 77 | – | – | – | – |
| maintained | did not modify significantly | Cc1ccc(NC(=O)c2ccc(CN3CCN(C)CC3)cc2)cc1Nc1nc(-c2cccnc2)cs1 [Masitinib, 4-(4-methylpiperazin-l-ylmethyl)-N-[4-methyl-3-(4-pyridin-3ylthiazol-2-ylamino)phenyl]benzamide] | – | – | positive effect | 300 ± 5 | inhibition | significant attenuation |
